Here are results for nine compounds from ChEMBL document CHEMBL1145270 (Bioorg Med Chem Lett, 2005).

For assay [1], the target named is T1, Alpha-2C adrenergic receptor (Homo sapiens, UniProt P18825).
T1 sequence (P18825 whole entry): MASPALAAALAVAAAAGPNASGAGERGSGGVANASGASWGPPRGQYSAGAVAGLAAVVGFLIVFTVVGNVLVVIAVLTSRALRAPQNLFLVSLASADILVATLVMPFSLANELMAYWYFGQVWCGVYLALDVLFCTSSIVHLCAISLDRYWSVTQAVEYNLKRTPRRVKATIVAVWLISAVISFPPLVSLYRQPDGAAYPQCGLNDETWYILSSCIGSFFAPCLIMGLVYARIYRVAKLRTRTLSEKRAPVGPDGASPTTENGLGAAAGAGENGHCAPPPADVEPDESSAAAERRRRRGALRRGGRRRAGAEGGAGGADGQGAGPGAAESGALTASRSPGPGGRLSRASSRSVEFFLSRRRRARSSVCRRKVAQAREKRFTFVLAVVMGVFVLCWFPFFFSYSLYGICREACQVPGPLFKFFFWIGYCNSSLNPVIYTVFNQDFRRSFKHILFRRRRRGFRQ
Nature of the assay: In vitro binding affinity measured by displacement of [3H]rauwolscine from alpha-2c adrenergic receptor expressed in CHO cells in presence of phentolamine. The format is cell-based.

Assay [2] has as its target T2, Alpha-2A adrenergic receptor (Homo sapiens, UniProt P08913).
T2 sequence (P08913 whole entry): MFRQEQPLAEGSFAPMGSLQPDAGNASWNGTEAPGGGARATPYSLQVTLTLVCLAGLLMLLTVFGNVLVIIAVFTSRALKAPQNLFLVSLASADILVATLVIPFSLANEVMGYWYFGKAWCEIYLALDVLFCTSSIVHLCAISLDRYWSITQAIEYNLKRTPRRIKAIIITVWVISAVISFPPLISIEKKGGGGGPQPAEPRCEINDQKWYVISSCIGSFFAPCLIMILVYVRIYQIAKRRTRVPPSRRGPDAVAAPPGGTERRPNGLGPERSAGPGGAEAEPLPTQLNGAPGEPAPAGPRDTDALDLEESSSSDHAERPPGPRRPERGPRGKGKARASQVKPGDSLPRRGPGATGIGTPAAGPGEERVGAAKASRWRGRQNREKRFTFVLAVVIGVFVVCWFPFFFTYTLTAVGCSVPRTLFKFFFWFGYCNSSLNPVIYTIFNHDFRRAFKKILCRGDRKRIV
In words: In vitro binding affinity towards alpha-2a adrenergic receptor.

Assay [3] addresses T3, Alpha-2B adrenergic receptor (Homo sapiens, UniProt P18089).
T3 sequence (P18089 whole entry): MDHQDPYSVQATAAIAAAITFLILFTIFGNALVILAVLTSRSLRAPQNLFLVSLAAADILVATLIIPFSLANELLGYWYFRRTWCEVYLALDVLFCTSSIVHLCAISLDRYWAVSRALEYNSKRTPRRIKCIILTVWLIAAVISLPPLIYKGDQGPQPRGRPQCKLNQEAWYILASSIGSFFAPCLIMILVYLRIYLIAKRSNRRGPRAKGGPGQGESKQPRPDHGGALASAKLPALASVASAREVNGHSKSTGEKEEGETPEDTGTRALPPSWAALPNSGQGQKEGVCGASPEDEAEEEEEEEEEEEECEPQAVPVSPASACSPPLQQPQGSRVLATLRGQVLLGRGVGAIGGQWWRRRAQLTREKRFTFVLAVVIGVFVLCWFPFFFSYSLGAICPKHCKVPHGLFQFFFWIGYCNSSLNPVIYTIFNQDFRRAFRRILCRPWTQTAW
In words: In vitro binding affinity towards alpha-2b adrenergic receptor.

Regarding `COC(=O)CNC(=O)[C@@H]1C2C[C@H]3c4[nH]c5ccccc5c4CCN3C[C@@H]2CC[C@@H]1O` (stereo partly specified), the inhibition constant Ki in assay [1] amounted to 8 nM.

As for `O=C(NCCCNC(=O)[C@@H]1C2C[C@H]3c4[nH]c5ccccc5c4CCN3C[C@@H]2CC[C@@H]1O)[C@H]1[C@@H]2C[C@@H]3c4[nH]c5ccccc5c4CCN3C[C@H]2CC[C@H]1O` (stereo partly specified), the Ki in assay [1] worked out at 8.5 nM.

On to `O=C(CCCNC(=O)[C@@H]1C2C[C@H]3c4[nH]c5ccccc5c4CCN3C[C@@H]2CC[C@@H]1O)OCc1ccccc1` (stereo partly specified), for which the Ki was determined as 0.65 nM in assay [1], 29 nM in assay [2] and 1300 nM in assay [3]. Take `COC(=O)CNC(=O)CNC(=O)[C@@H]1C2C[C@H]3c4[nH]c5ccccc5c4CCN3C[C@@H]2CC[C@@H]1O` (stereo partly specified): the Ki in assay [1] is 5.2 nM. As to `O=C(O)CCCNC(=O)[C@@H]1C2C[C@H]3c4[nH]c5ccccc5c4CCN3C[C@@H]2CC[C@@H]1O` (stereo partly specified), the inhibitory constant (Ki) in assay [1] amounted to 3 nM.

As for `O=C(O)[C@@H]1C2C[C@H]3c4[nH]c5ccccc5c4CCN3C[C@@H]2CC[C@@H]1O` (stereo partly specified), the inhibition constant (Ki) in assay [1] is 19 nM.

In the case of `O=C(NCCCNC(=O)[C@@H]1C2C[C@H]3c4[nH]c5ccccc5c4CCN3C[C@@H]2CC[C@@H]1O)OCc1ccccc1` (stereo partly specified), the inhibition constant (Ki) in assay [1] was determined as 1.1 nM. As to `NCCCNC(=O)[C@@H]1C2C[C@H]3c4[nH]c5ccccc5c4CCN3C[C@@H]2CC[C@@H]1O` (stereo partly specified), the Ki in assay [1] was 32 nM. On to `CC(C)(C)OC(=O)NCCCNC(=O)[C@@H]1C2C[C@H]3c4[nH]c5ccccc5c4CCN3C[C@@H]2CC[C@@H]1O` (stereo partly specified), for which the Ki in assay [1] stood at 2.8 nM.
